Assay results published in patent US12017975B2, “Myc-Max inhibitor compound therapeutics for cancer treatment, methods and uses associated therewith” (THE UNIVERSITY OF BRITISH COLUMBIA, priority 2018, dated 2024).
“Also recorded” adds a separate entry of the source. Where two headings read alike, the source gives them in different places.

Experiments:
[1] = test system: Myc-Max transcriptional activity; assay: Cignal c-Myc luciferase reporter assay in LNCaP cells; format: cell-based; conditions: Homo sapiens
Description: (§1) Cell transfection was performed using TransIT-2020™ transfection reagents according to the manufacturer's instructions (Mirus™). LNCaP cells were plated at 10000 cells per well and treated for 1 day with the indicated concentration of compound. Myc reporter activity was measured using the Cignal Myc Reporter Assay Kit™ from Qiagen™ (#336841) according to the manufacturer's instructions. For the UBE2C reporter assay, 22rv1 cells were plated at 10000 cells per well in 96-well plates in RPMI media supplemented with 5% charcoal-stripped serum (CSS) and treated for 1 day with 1 μM, 10 μM and 25 μM of compound.
Compounds were subjected to experimental evaluation using the commercially available transcriptional assay Cignal c-Myc luciferase reporter assay in LNCaP cells. […] A transiently transfected Myc-driven luciferase reporter allowed the monitoring of Myc-regulated signal in LNCaP upon treatment with the in silico identified compounds.

[2] = test system: Myc-Max/UBE2C downstream pathway; assay: UBE2C promoter luciferase reporter assay in 22rv1 cells; format: cell-based; conditions: for inhibition at 25 µM: Homo sapiens
Description: as §1
Myc inhibition was recently reported to reduce levels of the constitutively active androgen receptor splice variant AR-V7 in 22rv1 cells. […] The dose-dependent reduction of luciferase levels by the identified hits indicates a Myc-related reduction of AR-V7 level in the cells (see TABLE 1). […] The AR-V7 reduction with the hits was confirmed by Western blot (FIG. 2B).

[3] = test system: LNCaP cells; assay: LNCaP cell viability (PrestoBlue); format: cell-based; conditions: Homo sapiens; for IC50: 96 hours, 0-25 μM, read-out: IC50 LNCaP cell proliferation / viability
Description: (§2) LNCaP were plated at 5000 cells per well in RPMI 1640 containing 5% CSS in a 96-well plate, treated with test compounds (0-25 μM) for 96 hours. Cell density was measured using the PrestoBlue™ assay according to the manufacturer's protocol. The percentage of cell survival was normalized to the cell density of control wells treated by vehicle. Viability of Myc-negative […] cells was done similarly but in DMEM supplemented with 5% CSS.
(§3) The effect of hit compounds on Myc-driven cell proliferation was evaluated by measuring the cell viability of LNCaP cells after treatment with increasing concentrations of compounds.

[4] = Cell viability of Myc negative (c-Myc knockout) HO15.19 cells; format: cell-based; conditions: rat, HO15.19 cells (c-Myc knockout, Myc-negative); 25 μM; read-out: % inhibition of Myc negative HO15.19 cells (cytotoxicity)
Description: as §2, §3

[5] = test system: HO15.19 cells; assay: as above; format: cell-based; conditions: for inhibition at 12 µM: read-out: % inhibition Myc K.O cells (12 uM)
Description: as §2, §3

[6] = test system: LNCaP cells; assay: PARP cleavage (apoptosis) by Western blot in LNCaP cells; format: cell-based; conditions: for PARP cleavage / apoptosis: LNCaP cells, Western blot; for PARP effect: TABLE 2, LNCaP cells
Description: After 48 hours of treatment with Myc compounds, LNCaP cells were lysed, and protein sample preparation followed by Western blotting were performed. Blots were incubated with primary antibodies against c-Myc, PARP (Sigma™ 084M4766V), PARP cleaved-Asp214 (Sigma™ SAB4500487) and β-Actin (Sigma™ A2066) overnight at 4° C., followed by appropriate peroxidase-conjugated secondary antibodies. β-actin served as an internal control. Visualization of the immunocomplexes was done by an enhanced chemiluminescence detection system (Millipore™) followed by exposure to X-ray films.
Apoptosis. Myc inhibition induces cell death by cell cycle arrest and apoptosis. Cleavage of PARP-1 by caspases is considered a hallmark of apoptosis and so we measured the ability of compounds to induce PARP cleavage after treatment.

[7] = target: T1, Myc-Max complex (Homo sapiens, UniProt P01106+P61244); assay: Biolayer interferometry of Myc-Max binding to biotinylated E-box DNA; conditions: for Myc-Max interaction with immobilized E-box DNA: 500 μM compound (FIG. 3C); for BLI binding: TABLE 2
T1 construct: GST tagged Myc (residues 368-454); Histidine tagged Max (residues 23-102); made in house; host or cells: E. coli BL21-DE3
T1 sequence (P01106 368-454): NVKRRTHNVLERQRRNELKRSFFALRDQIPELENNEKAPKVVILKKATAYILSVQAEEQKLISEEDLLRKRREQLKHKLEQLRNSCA
T1 sequence (P61244 23-102): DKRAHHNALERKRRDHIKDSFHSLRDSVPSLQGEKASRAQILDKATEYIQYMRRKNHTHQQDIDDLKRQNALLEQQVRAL
Description: Histidine tagged Max (residues 23-102) and GST tagged Myc (residues 368-454) were overexpressed in E. coli BL21-DE3 cells. Cells were co-lyzed in lysis buffer (20 mM Tris pH 8, 500 mM NaCl, 5% glycerol, 10 mM imidazole, 8 mM BME, 2.1 mM PMSF). After sonication and centrifugation, the complex was first purified by using a Ni-NTA affinity resin. After overnight dialysis to remove the imidazole, the protein sample was applied to a size exclusion chromatography equilibrated with (20 mM Tris pH 8, 150 mM NaCl, 5% glycerol, 0.2 mM TCEP). Fractions containing equal amount of Myc and Max on SDS PAGE were collected and used for the binding assay. The presence of both proteins was validated by Western blot using a specific antibody of each protein (Max (h2) Sc-8011 and c-Myc (9E10) Sc-40, Santa Cruz Biotechnology™)
The direct interaction between biotinylated E-box oligo ([…]) immobilized on a streptavidin biosensor and a purified Myc-Max complex (0.05 mg/ml) was quantified by BLI using OctetRED (ForteBio™). The DNA was first bound to the super-streptavidin sensors over 1000 sec at 25° C. The sensors were next moved into wells containing the reaction buffer (20 mM Tris pH 8, 150 mM NaCl, 5% glycerol, 0.2 mM TCEP, 5% dimethylsulfoxide) for measuring the baseline and next into the Myc-Max complex alone or in presence of the tested inhibitors to study the association of the complex to the DNA.
Direct Binding and disruption of protein-DNA interaction. To study the direct effect of our hit compounds VPC-70063 and VPC-70067 on the interaction between Myc-Max heterodimer and the DNA, we used Bio-Layer Interferometry (BLI, ForteBio™). This technique is a label-free technology allowing the measurement of direct interactions between two partners, one immobilized on a sensor and the other one present in a solution. We applied this technology to study the disruption of the interaction between a biotinylated E-box oligo immobilized on a streptavidin biosensor and a purified Myc-Max complex in presence of our compounds. Therefore, histidine-tagged Max (residues 23-102) and GST tagged Myc (residues 368-454) were overexpressed and co-purified. The fraction containing equal amount of Myc and Max was collected and used for the binding assay (FIG. 3B). The presence of both proteins was validated by Western blot using a specific antibody of each protein. […] Additionally, we tested the ability of our best compound VPC-70063 to disrupt the interaction of MYC/MAX with DNA in a dose dependent manner.

[8] = target: T2, Myc-Max interaction (Homo sapiens, UniProt P01106); assay: Mammalian two-hybrid assay in PC3 cells; format: cell-based; conditions: various concentrations
T2 construct: expressed in transfected cells; host or cells: PC3 cells
T2 sequence (P01106 whole entry): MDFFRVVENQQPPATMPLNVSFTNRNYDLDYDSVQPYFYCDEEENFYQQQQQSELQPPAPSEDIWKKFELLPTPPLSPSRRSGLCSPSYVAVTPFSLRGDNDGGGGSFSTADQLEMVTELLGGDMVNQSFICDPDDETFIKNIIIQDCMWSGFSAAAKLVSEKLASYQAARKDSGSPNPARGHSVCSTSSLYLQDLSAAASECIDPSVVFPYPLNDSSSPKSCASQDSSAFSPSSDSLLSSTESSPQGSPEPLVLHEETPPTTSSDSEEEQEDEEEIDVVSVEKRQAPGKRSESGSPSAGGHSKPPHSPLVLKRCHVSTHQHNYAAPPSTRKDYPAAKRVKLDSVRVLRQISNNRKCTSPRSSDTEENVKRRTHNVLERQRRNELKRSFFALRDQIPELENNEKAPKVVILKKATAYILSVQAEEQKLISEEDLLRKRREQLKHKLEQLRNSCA
Description: Full lengths Myc and Max were cloned in pBIND and pACT plasmids (CheckMate™, Promega™), respectively. PC3 cells in RPMI 1640 supplemented with 5% FBS were seeded in 96-well plates at 5,000 cells/well. After 24 hours, cells were transfected with 15 ng of pACT-Max, 19.5 ng of pBIND-Myc, and 13.6 ng of the reporter plasmid PG5-luciferase. After 24 hours, cells were treated with various concentrations of the tested inhibitors. Cells were lysed the next day, and the luminescence signal was measured after adding 50 μL of luciferase assay reagent (Promega™). Each measurement was done in 4 replicates with biological replicates of 3. Luciferase levels corresponding to Myc-Max interactions were measured and normalized to a control provided by the commercial kit to discard non-specific effect due to toxicity or direct luciferase inhibition.
The effect of inhibitors of Myc-Max interaction was studied by using a mammalian two hybrid assay. Full lengths Myc and Max were cloned in pBIND and pACT plasmids (CheckMate™, Promega™), respectively. Luciferase levels corresponding to Myc-Max interactions were measured and normalized to a control provided by the commercial kit to discard non-specific effect due to toxicity or direct luciferase inhibition.

[9] = LNCaP, TABLE 3, read-out: % Inhibition 25 μM
[10] = LNCaP, 24 h, LNCaP cells, TABLE 1, read-out: Myc-Max transcriptional activity % inhibition (25 μM)
[11] = LNCaP, TABLE 2, assay not named, values match Myc-Max transcriptional activity, read-out: IC50
[12] = LNCaP cells, dose response, Cignal c-Myc kit, read-out: IC50 Myc-Max transcriptional activity

FC(F)(F)c1cc(NC(=S)NCc2ccccc2)cc(C(F)(F)F)c1 [VPC-70063, 1-benzyl-3-(3,5-bis(trifluoromethyl)phenyl)thiourea]
inhibition at 25 µM [1, 9]: 106% | inhibition at 25 µM [1, 10]: 106% | IC50 [1, 11]: 9 µM | IC50 [1, 12]: 8.9 µM | reduction of UBE2C promotor activity [2]: highest reduction of UBE2C promotor activity | inhibition at 25 µM [2]: 94% | inhibition at 3 µM ([3]; 3 μM, read-out: % of LNCaP cells inhibited): 70% | IC50 [3]: 2.5 µM | inhibition at 96 h, 25 µM [4]: 40% | effect on c-Myc knockout cells ([5]; 3 μM): no significant effect | inhibition at 2.5 µM ([5]; Rattus norvegicus, HO15.19, 2.5 μM (IC50 in LNCaP cells)): ~7% | inhibition at 12 µM ([5]; Rattus norvegicus, HO15.19): 35% | PARP cleavage / apoptosis [6]: inducing PARP cleavage; also recorded: induces apoptosis | PARP effect [6]: strong | Myc-Max interaction with immobilized E-box DNA [7]: prevented from interacting with the immobilized DNA | BLI binding [7]: strong | effect on Myc-Max/DNA complex dissociation ([7]; concentration below 100 μM): did not see any significant effect | MYC/MAX binding to DNA ([7]; concentration higher than 100 μM): dose response decrease of the MYC/MAX binding to DNA | effect on Myc-Max interaction [8]: dose response inhibition of the interaction between the two proteins

O=C1NC(=S)S/C1=C\c1ccccc1C(F)(F)F [VPC-70067]
inhibition at 25 µM ([1]; LNCaP, TABLE 4, read-out: % Inhibition (25 μM)): 98% | inhibition at 25 µM [1, 10]: 98% | IC50 [1, 11]: 22 µM | IC50 [1, 12]: 22.7 µM | inhibition at 25 µM [2]: 71% | IC50 [3]: 11.1 µM | inhibition at 12 µM ([5]; Rattus norvegicus, HO15.19): 3% | PARP cleavage / apoptosis [6]: inducing PARP cleavage | PARP effect [6]: good | Myc-Max interaction with immobilized E-box DNA [7]: prevented from interacting with the immobilized DNA | BLI binding [7]: strong

NC(=O)c1ccsc1NC(=O)Nc1cccc(C(F)(F)F)c1 [VPC-70021]
inhibition at 25 µM [1, 9]: 95% | inhibition at 25 µM [1, 10]: 95% | IC50 [1, 11]: 10 µM | IC50 [1, 12]: 8.5 µM | inhibition at 25 µM [2]: 73% | inhibition at 12 µM ([5]; Rattus norvegicus, HO15.19): 0% | PARP effect [6]: nil | BLI binding [7]: average

CCc1ccc(/C=C2\SC(=S)NC2=O)cc1 [Compound 10058-F4, [Z,E]-5-[4-ethylbenzylidine]-2-thioxothiazolidin-4-one, reference compound]
inhibition at 25 µM [2]: 70% | IC50 [3]: 18.3 µM

O=C(NNc1ccc(C(F)(F)F)cc1[N+](=O)[O-])c1cnccn1 [VPC-70127]
inhibition at 25 µM ([1]; LNCaP, TABLE 6, read-out: % Inhibition 25 μM): 106% | IC50 [1, 11]: 1 µM | inhibition at 12 µM ([5]; Rattus norvegicus, HO15.19): 19% | PARP effect [6]: strong | BLI binding [7]: weak

O=[N+]([O-])c1ccc(Nc2ccccc2-c2ccccc2)c2nonc12 [Compound 10074-G5, reference compound]
inhibition at 25 µM [1, 10]: 88% | IC50 [3]: 8.7 µM | inhibition at 96 h, 25 µM [4]: 37% | Myc-Max interaction with immobilized E-box DNA [7]: prevented from interacting with the immobilized DNA | effect on Myc-Max interaction [8]: did not show any effect
